Laboratory results published in EP0414391B1, “Aminoketone derivatives and use thereof” (MITSUI TOATSU CHEMICALS, Inc., priority 1989, dated 1991).
Counter-ions that a name gives are not always drawn. Like-named read-outs stand apart in the source and are kept apart here. Each block holds one molecule with its values, some of them ahead of it.

Columns and labels:
[1] = test system: Tonic extension of the hind limbs; assay: Antiepileptic action (pentetrazole-induced tonic extension of the hind limbs); type: in vivo, ddy Male mice; conditions: Mus musculus, ip, 0.5 h, read-out: Antiepileptic action ED₅₀
Protocol: ddy Male mice (body weights: 25-30 g) were used. Test compounds were intraperitoneally administered. Thirty minutes later, pentetrazole (PTZ) was intraperitoneally administered at 170 mg/kg.
Tonic extension of the hind limbs was observed. [formula]
Effective dose for 50% of antiepileptic action, ED₅₀ (mg/kg) was calculated.

[2] = Central depressant action (spontaneous behavior, revolutionary wheel); design: species or system ddy Male mice; conditions: mouse, in vivo, ip; intraperitoneal administration; dose reducing the number of wheel revolutions in 20 minutes by 50%; read-out: Central depressant action ED₅₀
Protocol: Depressant action against spontaneous behavior using a revolutionary wheel was used as an index for central depressant action.
ddy Male mice (body weights: 25-30 g) were used. After intraperitoneal administration of each test compound, the mouse was immediately placed in a revolutionary wheel. The total number of revolutions of the wheel during a 20 minute period immediately after the placement of the mouse inside the wheel was counted.
Doses required to reduce the number of revolutions by 50%, ED₅₀ (mg/kg) were determined.

[3] = Acute toxicity; conditions: mouse, in vivo, ip; intraperitoneally administered; alive or dead observed one day later; read-out: LD₅₀
Protocol: ddy Male mice (body weights: 25-30 g) were used. Each test compound was intraperitoneally administered. One day later, the mice were observed whether they were alive or dead.
50% lethal doses, LD₅₀ (mg/kg) were calculated.

[4] = test system: decerebrate rigidity induced by radio frequency lesions of rat brains; assay: Decerebrate rigidity remission action (radio frequency lesion, method of Ono et al); type: in vivo, Wistar male rat; conditions: iv, intravenously administered at 3 mg/kg, tension before the administration = 100%
Text: Using the method proposed by Ono et al [H. Ono et al, Gen. Pharmacol., 18, 57 (1987)], rigidity remission action of the aminoketone derivatives of the invention for the decerebrate rigidity induced by radio frequency lesions of rat brains was investigated.
Each Wistar male rat (body weight: 300-400 g) was anesthetized with ether and then fixed on a stereotaxic apparatus. In accordance with the Pellegrino's stereo-taxic brain atlas, the electrodes of a lesion generator (manufactured by Radionics Company) were punctuated to AP: 0, L:±1.5, V:-3. […] The rigidified rat was fixed in the abdominal position and one of the hind legs was pushed 4-5 mm toward the head repeatedly once a minute. The tension of each extension reflex of the extensor of the hind limbs was recorded. Assuming that the tension before the administration be 100%, the rate of rigidity inhibition as expressed in terms of percentage: [formula]
(§1) The test compounds were intravenously administered at 3 mg/kg.

[5] = test system: contraction of the bladder caused by a micturition reflex; assay: Micturition reflex depression action (bladder balloon, internal pressure); type: in vivo, Wistar male rats; conditions: injected through the common carotid vein, urethane-anesthetized rats, Mean ± S.E., 3 rats
Text: Wistar male rats having a body weight of 300 g were each anesthetized s.c. with 1.5 g/kg of urethane and fixed in the supine position. The hypogastrium was next subjected to median incision so that the bladder was exposed. A short cut was formed in a top part of the bladder, through which a balloon having an internal volume of about 1 mℓ was inserted. A catheter equipped with a three-way cock was connected to the balloon. A syringe was connected to another flow passage of the three-way cock, while a transducer ("Statham P-50", trade name) was connected to the remaining flow passage to permit the measurement of the internal pressure of the bladder.
After the rat was left over for at least 30 minutes after the operation, 0.25-0.5 mℓ of distilled water was injected into the balloon by means of the syringe. Variations in the internal pressure of the bladder, which were developed at that time due to spontaneous movement of the bladder, were recorded on a polygraph ("RM-6000", trade name; manufactured by Nihon Koden K.K.) by way of the transducer.
Each test compound was dissolved in physiological saline and injected through the common carotid vein. Effects of each test compound was expressed in terms of the time required until the disappearance of a contraction of the bladder caused by a micturition reflex.

[6] = test system: flexor reflex of the right anterior tibialis; assay: Depressing action for the spinal reflex of cat (flexor reflex); type: in vivo, cats; conditions: Felis catus, iv, read-out: Reflex inhibition, %
Protocol: Both male and female cats having a body weight of 2.5-4.0 kg were anesthetized with ether and then fixed in the supine position. In accordance with the method proposed by Shimamoto et al ["Yakurigaku Jisshu (Pharmacological Practice)", Nanzando Co., Ltd. (1960)], profound peroneal nerve-anterior peroneal nerve samples were prepared for the testing of flexor reflex. The flexor reflex of the right anterior tibialis was elicited by electrical stimulation (0.2 Hz, 1 ms, supra maximal voltage) of the central end of the ipsilateral femoral nerve. Under a static tension of 25 g, contractions of the corresponding anterior peroneal nerve were recorded on a polygraph. Assuming that the contraction force before the administration be 100%, the rate of flexor reflex inhibition was expressed in terms of percentage: [formula]
as §1

[7] = intraperitoneally administered 30 minutes before pentetrazole (PTZ) 170 mg/kg i.p.
[8] = intravenously administered at 3 mg/kg, contraction force before the administration = 100%

SMILES: CCc1ccc(C(=O)C(C)CN2CCCCC2)cc1 (centres unmarked) [Eperisone hydrochloride, eperisone hydrochloride, reference compound]
ED50 [1, 7]: 30 mg/kg
ED50 at 20 min [2]: 33 mg/kg
LD50 at 24 h [3]: 100 to 170 mg/kg
inhibition in vivo at 3 mg/kg [4]: 52%
Time required until disappearance ([5]; Dose 2 mg/kg): 2.4 ± 1.2 min
Time required until disappearance ([5]; Dose 4 mg/kg): 5.8 ± 2.1 min
inhibition in vivo at 3 mg/kg [6, 8]: 50%

SMILES: CC(CN1CCCCC1)C(=O)c1cc(-c2ccccc2)no1.Cl (centres unmarked) [Example 1, 5-(2-methyl-3-piperidinopropionyl)-3-phenylisoxazole Hydrochloride]
ED50 [1, 7]: 17 mg/kg
ED50 at 20 min [2]: 54 mg/kg
LD50 at 24 h [3]: 170 to 300 mg/kg
inhibition in vivo at 3 mg/kg [4]: 40%

SMILES: CC(CN1CCCC1)C(=O)c1cc(-c2ccccc2)no1 (centres unmarked) [Example 5]
ED50 [1, 7]: 20 mg/kg
ED50 at 20 min [2]: 44 mg/kg
LD50 at 24 h [3]: 100 to 170 mg/kg
inhibition in vivo at 3 mg/kg [4]: 40%

SMILES: COc1cccc(-c2cc(C(=O)C(C)CN3CCCC3)on2)c1 (centres unmarked) [Example 8]
inhibition in vivo at 3 mg/kg [4]: 38%

SMILES: Cc1ccc(-c2cc(C(=O)C(C)CN3CCCC3)on2)o1 (centres unmarked) [Example 20, hydrochloride]
ED50 at 20 min [2]: 49 mg/kg
LD50 at 24 h [3]: 170 to 300 mg/kg
inhibition in vivo at 3 mg/kg [4]: 49%
inhibition in vivo at 3 mg/kg [6, 8]: 54%

ED50 at 20 min [2]: 52 mg/kg
SMILES: CC(CN1CCCCC1)C(=O)c1cc(Cc2ccccc2)no1.Cl (centres unmarked) [Example 21, 3-Benzyl-5-(2-methyl-3-piperidinopropionyl)isoxazole hydrochloride]
inhibition in vivo at 3 mg/kg [4]: 44%

ED50 at 20 min [2]: 43 mg/kg
SMILES: CC(CN1CCCCC1)C(=O)c1cc(C(=O)c2ccccc2)no1.Cl (centres unmarked) [Example 22, 3-benzoyl-5-(2-methyl-3-piperidinopropionyl)isoxazole hydrochloride]
ED50 [1, 7]: 18 mg/kg
inhibition in vivo at 3 mg/kg [4]: 41%

SMILES: CCC(CN1CCCC1)C(=O)c1cc(-c2ccccc2)no1 (centres unmarked) [Example 28, 3-Phenyl-5-{2-(1-pyrrolidinylmethyl)butyryl} isoxazole hydrochloride]
ED50 [1, 7]: 5 mg/kg
ED50 at 20 min [2]: 44 mg/kg
LD50 at 24 h [3]: 100 to 170 mg/kg
inhibition in vivo at 3 mg/kg [4]: 62%
Time required until disappearance ([5]; Dose 2 mg/kg): 5.6 ± 1.2 min
Time required until disappearance ([5]; Dose 4 mg/kg): 10.1 ± 2.1 min
inhibition in vivo at 3 mg/kg [6, 8]: 79%

SMILES: CCC(CN1CCCCC1)C(=O)c1cc(-c2ccccc2)no1 (centres unmarked) [Example 29]
ED50 [1, 7]: 3 mg/kg
ED50 at 20 min [2]: 38 mg/kg
LD50 at 24 h [3]: 300 to 500 mg/kg
inhibition in vivo at 3 mg/kg [4]: 53%
Time required until disappearance ([5]; Dose 2 mg/kg): 4.9 ± 1.2 min
Time required until disappearance ([5]; Dose 4 mg/kg): 8.6 ± 2.1 min
inhibition in vivo at 3 mg/kg [6, 8]: 70%

SMILES: CCC(CN1CCCC1)C(=O)c1cc(-c2ccc(C)o2)no1 (centres unmarked) [Example 38]
inhibition in vivo at 3 mg/kg [6, 8]: 38%

SMILES: CC(C)C(CN1CCCC1)C(=O)c1cc(-c2ccccc2)no1 (centres unmarked) [Example 46, 3-Phenyl-5-{2-(1-pyrrolidinylmethyl)-3-methylbutyryl}-isoxazole hydrochloride]
inhibition in vivo at 3 mg/kg [4]: 51%
inhibition in vivo at 3 mg/kg [6, 8]: 66%

SMILES: CCCC(CN1CCCC1)C(=O)c1cc(-c2ccccc2)no1 (centres unmarked) [Example 47]
inhibition in vivo at 3 mg/kg [6]: 45%

SMILES: CCC(CN1CCCC1)C(=O)c1cc(-c2ccccc2)on1 (centres unmarked) [Example 52]
inhibition in vivo at 3 mg/kg [4]: 61%

SMILES: CCC(CN1CCCC1)C(=O)c1noc2ccccc12 (centres unmarked) [Example 58, 3-{2-(1-pyrrolidinylmethyl)butyryl} -1,2-benzisoxazole hydrochloride]
inhibition in vivo at 3 mg/kg [6]: 45%

ED50 at 20 min [2]: 37 mg/kg
SMILES: CC(CN1CCCC1)C(=O)c1snc2ccccc12 (centres unmarked) [Example 61]
ED50 [1, 7]: 11 mg/kg
inhibition in vivo at 3 mg/kg [6, 8]: 85%

SMILES: CCC(CN1CCCC1)C(=O)c1snc2ccccc12 (centres unmarked) [Example 62]
ED50 [1]: 23 mg/kg
ED50 at 20 min [2]: 50 mg/kg
inhibition in vivo at 3 mg/kg [6]: 90%

SMILES: Cc1onc(-c2ccccc2)c1C(=O)C(C)CN1CCCCC1.Cl (centres unmarked) [Example 68, 3-Phenyl-5-methyl-4-(2-methyl-3-piperidinopropionyl)isoxazole hydrochloride]
ED50 [1, 7]: 17 mg/kg
inhibition in vivo at 3 mg/kg [6, 8]: 56%
